Measured values from the NIST ThermoML archive (doi:10.1021/je900444h).

Assay: mn = molality of the nth substance listed, in mol/kg
Settings: 101 kPa, Liquid; for mass density: Vibrating tube method; for viscosity: Capillary tube (Ostwald / Ubbelohde) method

CNC(=O)NC [1,3-dimethylurea] + O
Settings	mass density [kg/m3]	viscosity [mPa·s]
283.15 K, m1 = 0.0033	999.7	–
283.15 K, m1 = 0.0331	1000	–
283.15 K, m1 = 0.0995	1000.6	–
283.15 K, m1 = 0.1669	1001.2	–
283.15 K, m1 = 0.2354	1001.8	–
283.15 K, m1 = 0.3039	1002.4	–
283.15 K, m1 = 0.3387	1002.7	–
283.15 K, m1 = 0.4997	1004.2	–
283.15 K, m1 = 0.7491	1006.5	–
283.15 K, m1 = 1.001	1008.7	–
283.15 K, m1 = 1.08	1009.4	–
283.15 K, m1 = 1.5	1013.2	–
283.15 K, m1 = 1.923	1016.8	–
283.15 K, m1 = 2.885	1024.6	–
283.15 K, m1 = 4.005	1032.6	–
283.15 K, m1 = 5.304	1040.7	–
283.15 K, m1 = 6.862	1048.7	–
283.15 K, m1 = 8.726	1056.3	–
283.15 K, m1 = 11.02	1063.4	–
283.15 K, m1 = 15.65	1072.5	–
283.15 K, m1 = 23.15	1079.6	–
288.15 K, m1 = 0.0033	999.1	1.173
288.15 K, m1 = 0.0331	999.4	1.187
288.15 K, m1 = 0.0995	1000	1.212
288.15 K, m1 = 0.1669	1000.5	1.232
288.15 K, m1 = 0.2354	1001.1	1.243
288.15 K, m1 = 0.3039	1001.7	1.255
288.15 K, m1 = 0.3387	1002	1.27
288.15 K, m1 = 0.4997	1003.4	–
288.15 K, m1 = 0.7491	1005.6	1.402
288.15 K, m1 = 1.001	1007.8	–
288.15 K, m1 = 1.08	1008.5	–
288.15 K, m1 = 1.5	1012.1	–
288.15 K, m1 = 1.923	1015.5	1.831
288.15 K, m1 = 2.885	1023	2.225
288.15 K, m1 = 4.005	1030.7	2.746
288.15 K, m1 = 5.304	1038.4	3.342
288.15 K, m1 = 6.862	1046	4.179
288.15 K, m1 = 8.726	1053.3	5.242
288.15 K, m1 = 11.02	1060.1	6.533
288.15 K, m1 = 15.65	1068.9	9.3
288.15 K, m1 = 23.15	1075.7	14.49
293.15 K, m1 = 0.0033	998.2	1.035
293.15 K, m1 = 0.0331	998.5	1.045
293.15 K, m1 = 0.0995	999	1.066
293.15 K, m1 = 0.1669	999.6	1.081
293.15 K, m1 = 0.2354	1000.2	1.094
293.15 K, m1 = 0.3039	1000.8	1.104
293.15 K, m1 = 0.3387	1001	1.117
293.15 K, m1 = 0.4997	1002.4	–
293.15 K, m1 = 0.7491	1004.5	1.228
293.15 K, m1 = 1.001	1006.6	–
293.15 K, m1 = 1.08	1007.3	–
293.15 K, m1 = 1.5	1010.7	–
293.15 K, m1 = 1.923	1014	1.581
293.15 K, m1 = 2.885	1021.2	1.902
293.15 K, m1 = 4.005	1028.5	2.325
293.15 K, m1 = 5.304	1035.9	2.805
293.15 K, m1 = 6.862	1043.3	3.464
293.15 K, m1 = 8.726	1050.2	4.27
293.15 K, m1 = 11.02	1056.8	5.262
293.15 K, m1 = 15.65	1065.3	7.377
293.15 K, m1 = 23.15	1071.9	11.22
298.15 K, m1 = 0.0033	997.1	0.9187
298.15 K, m1 = 0.0331	997.3	0.929
298.15 K, m1 = 0.0995	997.9	0.9456
298.15 K, m1 = 0.1669	998.4	0.9603
298.15 K, m1 = 0.2354	999	0.9716
298.15 K, m1 = 0.3039	999.5	0.9789
298.15 K, m1 = 0.3387	999.8	0.9944
298.15 K, m1 = 0.4997	1001.1	–
298.15 K, m1 = 0.7491	1003.2	1.084
298.15 K, m1 = 1.001	1005.2	–
298.15 K, m1 = 1.08	1005.8	–
298.15 K, m1 = 1.5	1009.2	–
298.15 K, m1 = 1.923	1012.3	1.379
298.15 K, m1 = 2.885	1019.2	1.649
298.15 K, m1 = 4.005	1026.3	1.998
298.15 K, m1 = 5.304	1033.3	2.382
298.15 K, m1 = 6.862	1040.4	2.921
298.15 K, m1 = 8.726	1047	3.535
298.15 K, m1 = 11.02	1053.4	4.342
298.15 K, m1 = 15.65	1061.6	5.955
298.15 K, m1 = 23.15	1068	8.8
303.15 K, m1 = 0.0033	995.7	0.8242
303.15 K, m1 = 0.0331	995.9	0.8316
303.15 K, m1 = 0.0995	996.4	0.8464
303.15 K, m1 = 0.1669	997	0.8592
303.15 K, m1 = 0.2354	997.5	0.8702
303.15 K, m1 = 0.3039	998.1	0.8753
303.15 K, m1 = 0.3387	998.3	0.887
303.15 K, m1 = 0.4997	999.6	–
303.15 K, m1 = 0.7491	1001.6	0.9652
303.15 K, m1 = 1.001	1003.6	–
303.15 K, m1 = 1.08	1004.2	–
303.15 K, m1 = 1.5	1007.4	–
303.15 K, m1 = 1.923	1010.5	1.216
303.15 K, m1 = 2.885	1017.1	1.44
303.15 K, m1 = 4.005	1023.8	1.729
303.15 K, m1 = 5.304	1030.6	2.055
303.15 K, m1 = 6.862	1037.4	2.49
303.15 K, m1 = 8.726	1043.8	3.002
303.15 K, m1 = 11.02	1049.8	3.603
303.15 K, m1 = 15.65	1057.8	4.927
303.15 K, m1 = 23.15	1064	7.122
308.15 K, m1 = 0.4997	997.9	–
308.15 K, m1 = 0.7491	999.8	0.8666
308.15 K, m1 = 1.001	1001.7	–
308.15 K, m1 = 1.08	1002.3	–
308.15 K, m1 = 1.5	1005.4	–
308.15 K, m1 = 1.923	1008.4	1.079
308.15 K, m1 = 2.885	1014.8	1.271
308.15 K, m1 = 4.005	1021.3	1.511
308.15 K, m1 = 5.304	1027.8	1.778
308.15 K, m1 = 6.862	1034.3	2.135
308.15 K, m1 = 8.726	1040.5	2.545
308.15 K, m1 = 11.02	1046.3	3.056
308.15 K, m1 = 15.65	1054	4.116
308.15 K, m1 = 23.15	1060.1	5.865
313.15 K, m1 = 0.4997	996	–
313.15 K, m1 = 0.7491	997.9	0.7797
313.15 K, m1 = 1.001	999.7	–
313.15 K, m1 = 1.08	1000.3	–
313.15 K, m1 = 1.5	1003.3	–
313.15 K, m1 = 1.923	1006.1	0.9649
313.15 K, m1 = 2.885	1012.3	1.127
313.15 K, m1 = 4.005	1018.6	1.336
313.15 K, m1 = 5.304	1024.9	1.56
313.15 K, m1 = 6.862	1031.1	1.859
313.15 K, m1 = 8.726	1037.1	2.195
313.15 K, m1 = 11.02	1042.8	2.626
313.15 K, m1 = 15.65	1050.2	3.513
313.15 K, m1 = 23.15	1056.1	4.918
318.15 K, m1 = 5.304	1021.8	1.38
318.15 K, m1 = 6.862	1027.8	1.632
318.15 K, m1 = 8.726	1033.6	1.906
318.15 K, m1 = 11.02	1039.1	2.268
318.15 K, m1 = 15.65	1046.3	3.024
318.15 K, m1 = 23.15	1052.1	4.196
323.15 K, m1 = 5.304	1018.6	1.222
323.15 K, m1 = 6.862	1024.5	1.44
323.15 K, m1 = 8.726	1030.1	1.681
323.15 K, m1 = 11.02	1035.4	1.983
323.15 K, m1 = 15.65	1042.4	2.646
323.15 K, m1 = 23.15	1048	3.658
328.15 K, m1 = 5.304	1015.9	1.095
328.15 K, m1 = 6.862	1021	1.293
328.15 K, m1 = 8.726	1026.5	1.492
328.15 K, m1 = 11.02	1031.6	1.76
328.15 K, m1 = 15.65	1038.4	2.333
328.15 K, m1 = 23.15	1043.9	3.212
333.15 K, m1 = 5.304	1012.3	1.024
333.15 K, m1 = 6.862	1017.5	1.164
333.15 K, m1 = 8.726	1022.7	1.343
333.15 K, m1 = 11.02	1027.8	1.564
333.15 K, m1 = 15.65	1034.4	2.061
333.15 K, m1 = 23.15	1039.8	2.818
